# Experimental data from paper PMC5587909, “Inhibition of the ATP Synthase Eliminates the Intrinsic Resistance of Staphylococcus aureus towards Polymyxins” (mBio, 2017).
# Bridge positions count the residues as written; N and C are the ends. Square brackets hold non-standard residues; d marks the D form. Peptide text beside a SMILES is read from it. * marks the point of attachment. X1 = CC[C@H](C)CCCCC(=O)*; Dab = NCC[C@H](N)C(=O)O
# Legend:
# [1] = test system: S. aureus JE2 lspA transposon mutant (SAUSA300_1089); type: cell-based, Staphylococcus aureus; settings: Etest on TSA, 37°C, 22 h
# Excerpt: (§1) Staphylococcus aureus is intrinsically resistant to the clinically approved cationic antimicrobial peptides polymyxin B (PMB) and colistin ([1], [16]). […] The MIC for PMB was subsequently determined using Etests for the identified mutants. Nineteen mutants were confirmed to be at least 2-fold more susceptible than the WT (Table 1). As expected, we identified transposon insertions in graS, graR, vraF, and vraG, corroborating previous work on these determinants in S. aureus in relation to increased PMB susceptibility ([12]).
# (§2) The strains used in this study include S. aureus strain JE2 (plasmid-cured derivative of USA300 LAC) and all derivative strains within the Nebraska Transposon Mutant Library (NTML), consisting of 1,920 unique transposon mutants with inactivation of nonessential genes ([15]). The bursa aurealis transposon used to create the collection contains the resistance cassette ermB, which confers resistance to erythromycin ([15]). Additionally we used S. aureus SA113 and two derivatives, SA113 ΔdltA ([9]) and SA113 ΔmprF ([10]). All bacterial strains were cultured at 37°C in tryptic soy broth (TSB) or on tryptic soy agar (TSA), with antimicrobial agents added as indicated. Two methods have been employed to determine MICs to various antimicrobial agents. (i) A 2-fold broth microdilution assay in TSB (100 µl) with an initial inoculum of approximately 5 × 10^5 cells/ml was employed to determine the MICs of polymyxin B sulfate (Sigma), gallidermin (Santa Cruz Biotechnology), nisin (Sigma), bacitracin (Sigma), and LL-37 (Isca Biochemicals). (ii) An Etest (BioMérieux) performed on TSA plates was employed to determine MICs for polymyxin B, colistin, ciprofloxacin, oxacillin, linezolid, gentamicin, vancomycin, and daptomycin. The MIC was determined upon incubation at 37°C for 22 h. When indicated, the Etest (BioMérieux) was performed on Mueller-Hinton agar plates (cation adjusted for calcium and magnesium).
# [2] = test system: S. aureus JE2 yajC transposon mutant (SAUSA300_1594); type: cell-based, Staphylococcus aureus; settings: Etest on TSA, 37°C, 22 h
# Excerpt: as §1, §2
# [3] = test system: S. aureus JE2 transposon mutant SAUSA300_0980 (hypothetical protein); type: cell-based, Staphylococcus aureus; settings: Etest on TSA, 37°C, 22 h
# Excerpt: as §1, §2
# [4] = test system: S. aureus JE2 cbiO transposon mutant (SAUSA300_2176); type: cell-based, Staphylococcus aureus; settings: Etest on TSA, 37°C, 22 h
# Excerpt: as §1, §2
# [5] = test system: S. aureus JE2 transposon mutant SAUSA300_0918 (diacylglycerol glucosyltransferase); type: cell-based, Staphylococcus aureus; settings: Etest on TSA, 37°C, 22 h
# Excerpt: as §1, §2
# [6] = test system: S. aureus JE2 atpB transposon mutant (SAUSA300_2064); type: cell-based, Staphylococcus aureus; settings: Etest on TSA
# Excerpt: as §1, §2
# [7] = test system: S. aureus JE2 transposon mutant SAUSA300_1495 (hypothetical protein); type: cell-based, Staphylococcus aureus; settings: Etest on TSA, 37°C, 22 h
# Excerpt: as §1, §2
# [8] = test system: S. aureus JE2 transposon mutant SAUSA300_1785 (putative ABC transporter protein EcsB); type: cell-based, Staphylococcus aureus; settings: Etest on TSA, 37°C, 22 h
# Excerpt: as §1, §2
# [9] = test system: S. aureus JE2 vraS transposon mutant (SAUSA300_1866); type: cell-based, Staphylococcus aureus; settings: Etest on TSA, 37°C, 22 h
# Excerpt: as §1, §2
# [10] = test system: S. aureus JE2 trkA transposon mutant (SAUSA300_0988); type: cell-based, Staphylococcus aureus; settings: Etest on TSA, 37°C, 22 h
# Excerpt: as §1, §2
# [11] = test system: S. aureus JE2 atpH transposon mutant (SAUSA300_2061); type: cell-based, Staphylococcus aureus; settings: Etest on TSA
# Excerpt: as §1, §2
# [12] = test system: S. aureus JE2 transposon mutant SAUSA300_1254 (hypothetical protein); type: cell-based, Staphylococcus aureus; settings: Etest on TSA, 37°C, 22 h
# Excerpt: as §1, §2
# [13] = test system: S. aureus JE2 vraG transposon mutant (SAUSA300_0648); experiment: microbe, parasite or virus in culture; settings: Etest on TSA
# Excerpt: (§3) Staphylococcus aureus is intrinsically resistant to the clinically approved cationic antimicrobial peptides polymyxin B (PMB) and colistin ([1], [16]). […] The MIC for PMB was subsequently determined using Etests for the identified mutants.
# as §2, with “(ii) An Etest (BioMérieux) performed on TSA plates was employed to determine MICs for polymyxin B, colistin, ciprofloxacin, oxacillin, linezolid, gentamicin, vancomycin, and daptomycin.” left out, “When indicated, the Etest (BioMérieux) was performed on Mueller-Hinton agar plates (cation adjusted for calcium and magnesium).” left out
# [14] = test system: S. aureus JE2 (wild type); experiment: microbe, parasite or virus in culture; settings: Etest on TSA, 37°C, 22 h; wild type S. aureus JE2
# Excerpt: as §3
# as §2, with “(ii) An Etest (BioMérieux) performed on TSA plates was employed to determine MICs for polymyxin B, colistin, ciprofloxacin, oxacillin, linezolid, gentamicin, vancomycin, and daptomycin.” left out, “When indicated, the Etest (BioMérieux) was performed on Mueller-Hinton agar plates (cation adjusted for calcium and magnesium).” left out
# [15] = test system: S. aureus JE2 atpA transposon mutant (SAUSA300_2060); experiment: microbe, parasite or virus in culture; settings: Etest on TSA
# Excerpt: as §3
# as §2, with “(ii) An Etest (BioMérieux) performed on TSA plates was employed to determine MICs for polymyxin B, colistin, ciprofloxacin, oxacillin, linezolid, gentamicin, vancomycin, and daptomycin.” left out, “When indicated, the Etest (BioMérieux) was performed on Mueller-Hinton agar plates (cation adjusted for calcium and magnesium).” left out
# [16] = test system: S. aureus JE2 graR transposon mutant (SAUSA300_0645); experiment: microbe, parasite or virus in culture; settings: Etest on TSA
# Excerpt: as §3
# as §2, with “(ii) An Etest (BioMérieux) performed on TSA plates was employed to determine MICs for polymyxin B, colistin, ciprofloxacin, oxacillin, linezolid, gentamicin, vancomycin, and daptomycin.” left out, “When indicated, the Etest (BioMérieux) was performed on Mueller-Hinton agar plates (cation adjusted for calcium and magnesium).” left out
# [17] = test system: S. aureus JE2 vraF transposon mutant (SAUSA300_0647); experiment: microbe, parasite or virus in culture; settings: Etest on TSA
# Excerpt: as §3
# as §2, with “(ii) An Etest (BioMérieux) performed on TSA plates was employed to determine MICs for polymyxin B, colistin, ciprofloxacin, oxacillin, linezolid, gentamicin, vancomycin, and daptomycin.” left out, “When indicated, the Etest (BioMérieux) was performed on Mueller-Hinton agar plates (cation adjusted for calcium and magnesium).” left out
# [18] = test system: S. aureus SA113 ΔdltA mutant; type: cell-based, Staphylococcus aureus; settings: MIC method not given, 37°C, 22 h
# Excerpt: as §2
smiles,measurement,setting,value
"CC[C@H](C)CCCCC(=O)N[C@@H](CCN)C(=O)N[C@H](C(=O)N[C@@H](CCN)C(=O)N[C@H]1CCNC(=O)[C@H]([C@@H](C)O)NC(=O)[C@H](CCN)NC(=O)[C@H](CCN)NC(=O)[C@H](CC(C)C)NC(=O)[C@@H](Cc2ccccc2)NC(=O)[C@H](CCN)NC1=O)[C@@H](C)O [Polymyxin B, polymyxin B] (X1-[Dab]T[Dab][Dab][Dab][dF]L[Dab][Dab]T; lactam 4-C (inferred); N-terminus assumed)",MIC,[1],64 µg/mL
same,MIC,[2],64 µg/mL
same,MIC,[3],48 µg/mL
same,MIC,[4],48 µg/mL
same,MIC,[5],64 µg/mL
same,MIC,"[6]; 37°C, 22 h, atpB mutant",16 µg/mL
same,fold reduction in MIC relative to WT,[6]; atpB mutant vs WT JE2,8 fold
same,MIC,[7],64 µg/mL
same,MIC,[8],48 µg/mL
same,MIC,[9],64 µg/mL
same,MIC,[10],48 µg/mL
same,MIC,"[11]; 37°C, 22 h, atpH mutant",16 µg/mL
same,fold reduction in MIC relative to WT,[11]; atpH mutant vs WT JE2,8 fold
same,MIC,[12],48 µg/mL
same,MIC,"[13]; 37°C, 22 h, vraG mutant",16 µg/mL
same,fold reduction in MIC / increased sensitivity relative to WT,[13]; vraG mutant vs WT JE2,8 fold
same,MIC,[14],128 µg/mL
same,MIC,"[15]; 37°C, 22 h, atpA mutant",16 µg/mL
same,fold reduction in MIC / increased sensitivity relative to WT,[15]; atpA mutant vs WT JE2,8 fold
same,MIC,"[16]; 37°C, 22 h, graR mutant",16 µg/mL
same,fold reduction in MIC / increased sensitivity relative to WT,[16]; graR mutant vs WT JE2,8 fold
same,MIC,"[17]; 37°C, 22 h, vraF mutant",16 µg/mL
same,fold reduction in MIC / increased sensitivity relative to WT,[17]; vraF mutant vs WT JE2,8 fold
same,MIC,[18],48 µg/mL
